Laboratory results published in patent US9353144B2, “Vascular leakage inhibitor” (INDUSTRY-ACADEMIC COOPERATION FOUNDATION, YONSEI UNIVERSITY, priority 2011, dated 2016).

How the values were obtained:
[1] = system: HRECs (Human Retinal Endothelial Cells); settings: cited from earlier work; for ability to inhibit apoptosis (derivatives of previous researches, control groups): obtained in the previous researches by the inventors (Korean Patent Application Publication No. 2011-0047170); for ability to inhibit apoptosis, comparison in the previous researches: relative to Rk1 or to other earlier derivatives
[2] = system: HRECs (Human Retinal Endothelial Cells); assay: Screening of synthesized derivatives for ability to inhibit serum depletion-induced vascular endothelial cell apoptosis (MTT assay, cell morphology); assay type: cell-based; settings: serum-free, 10 μg/ml; for ability to inhibit apoptosis, ranking among synthetic derivatives and control groups: comparison with control groups; for ability to inhibit apoptosis compared with Sac-1004: relative to control Sac-1004
Protocol: FIGS. 1a-1c and FIGS. 2a-2c show the result of screening Rk1 analogs that protect HRECs (Human Retinal Endothelial Cells) from serum depletion-induced apoptosis. HRECs (3×10^5 cells/well) were seeded on a 24-well plate in EGM9 medium containing 20% fetal bovine serum. The next day, the cells were transferred to a medium containing 10 μg/mL of the synthesized compound. Cell viability was determined by MTT assay 48 hours later. […] Con is indicative of cells treated with DMSO.
(§1) Human retinal endothelial cells (HRECs) purchased from Cell Systems (USA) were seeded on a 100 mm culture dish containing EGM medium (Life Technologies, USA) containing 20% (w/v) fetal bovine serum (FBS, HyClone, Canada), 100 units/mL penicillin (Invitrogen, USA), 100 μg/mL streptomycin (Invitrogen, USA), 3 ng/mL fibroblast growth factor (Upstate Biotechnology, USA) and 5 units/mL heparin and cultured in a 5% CO2 incubator at 37° C.
Based on the previous researches conducted by the present inventors, synthesized derivatives of Rk1 having a steroid backbone and having an ability to inhibit vascular endothelial cell apoptosis were screened. Vascular endothelial cells HRECs (3×10^5 cells/well) were plated on a 24-well plate in which 1 ml of EGM medium containing 20% fetal bovine serum was present. The next day, the cells were transferred to serum-free EGM media containing 10 μg/ml of the compounds synthesized in Synthetic Examples 1 and 2. After 24 hours, cell viability was determined by MTT assay (Mosmann T, Journal of Immunological Methods 65(1-2):5563(1983); Cory A H, et al., Cancer Communications 3(7):20712(1991)).

[3] = system: HRECs (Human Retinal Endothelial Cells); assay: Ability to inhibit apoptosis of Sac-1009, Sac-1104 and Sac-1019 according to concentration (serum removal, MTT assay); assay type: cell-based; settings: for inhibition of apoptosis of HRECs, concentration dependence: serum-free EGM, 0, 0.1, 1, 5 and 10 μg/ml; for inhibition of apoptosis of HRECs, concentration dependence / concentration of the most effective ability to inhibit apoptosis: MTT after 48 hours, FIG. 3; for concentration of the most effective ability to inhibit apoptosis: serum-free EGM, tested 0-10 μg/ml; for cell viability of HRECs in a serum depletion environment: summary of test examples 1 and 2
Protocol: HRECs (3×10^5 cells/well) were seeded on a 24-well plate in EGM medium containing 20% fetal bovine serum. The next day, the cells were transferred to a serum depletion EGM medium containing Sac-1009, Sac-1104 or Sac-1019. Sac-1009, Sac-1104 and Sac-1019 were added into the medium at a concentration of 0, 0.1, 1, 5 or 10 μg/mL, respectively. Cell viability was determined by MTT assay 48 hours later.
as §1
After apoptosis was induced by removing serum from the medium of vascular endothelial cells, Sac-1009, Sac-1104, and Sac-1019 were applied to cells to measure the ability to inhibit apoptosis. Vascular endothelial cells HRECs (3×10^5 cells/well) were plated on a 24-well plate in which 1 ml of EGM medium containing 20% fetal bovine serum was present. The next day, the cells were transferred to serum-free EGM media containing Sac-1009, Sac-1104, and Sac-1019. Sac-1009, Sac-1104, and Sac-1019 were added at concentrations of 0, 0.1, 1, 5, and 10 μg/ml. After 48 hours, cell viability was determined by MTT assay.

[4] = system: HRECs (Human Retinal Endothelial Cells); assay: Screening based on change in cytoskeleton: VEGF-induced actin stress fibers, rhodamine phalloidin staining; assay type: cell-based; settings: for ability to inhibit the formation of actin stress fibers induced by VEGF: confluent HRECs pretreated with 10 μg/mL compound for 1 hour before 20 ng/ml VEGF, FIGS. 4 and 5; for abilities to inhibit the formation of actin stress fibers induced by VEGF and maintain the cortical actin ring structure, ranking: confluent HRECs, pretreated 1 hour, 20 ng/ml VEGF
Protocol: Confluent HRECs were pretreated with the compounds (10 μg/mL) for 60 minutes before treating with 20 ng/mL VEGF. The cells were then stained with rhodamine phalloidin.
as §1
It is known that the change in the actin structure of the cytoskeleton is closely related with the permeability of vascular endothelial cells. Increased permeability of vascular endothelial cells leads to an increase in actin stress fibers and a decrease in cortical actin ring structures. Based on this, the ability to inhibit vascular endothelial permeability of the synthesized derivatives of Rk1 was screened. Confluent HRECs were pretreated with […] the synthesized compounds for 1 hour before the treatment with 20 ng/ml VEGF (Upstate Biotechnology). Then, the cells were fixed with 4% paraformaldehyde for 20 minutes at room temperature, and washed 3 times with PBS (pH 7.4). Then, the cells were permeabilized with 0.1% Triton X-100/PBS, and reacted with 0.1 mg/ml rhodamine phalloidin (Molecular Probes) for 1 hour. Then, the cells were observed under a fluorescence microscope (Olympus).

Compound	ability to inhibit apoptosis (derivatives of previous researches, control groups) [1]	ability to inhibit apoptosis, comparison in the previous researches [1]	ability to inhibit apoptosis, ranking among synthetic derivatives and control groups [2]	ability to inhibit apoptosis compared with Sac-1004 [2]	inhibition of apoptosis of HRECs, concentration dependence [3]	concentration of the most effective ability to inhibit apoptosis [3]	cell viability of HRECs in a serum depletion environment [3]	ability to inhibit the formation of actin stress fibers induced by VEGF [4]	abilities to inhibit the formation of actin stress fibers induced by VEGF and maintain the cortical actin ring structure, ranking [4]
CC(=O)OCC1OC(OC2CCC3(C)C(=CCC4C3CCC3(C)C(C(C)CCCC(C)C)CCC43)C2)C=CC1OC(C)=O (stereo not drawn) [Sac-0601]	having an ability to inhibit apoptosis	equivalent to that of Rk1							
COC(=O)CCC/C=C(\C)[C@H]1CCC2C3CC=C4C[C@@H](OC5C=C[C@H](OC(C)=O)[C@@H](COC(C)=O)O5)CC[C@]4(C)C3CC[C@@]21C (stereo partly drawn) [Sac-1004]	having an ability to inhibit apoptosis	the most excellent							
CC(=O)OC[C@H]1OC(O[C@H]2CC[C@@]3(C)C(=CCC4C3CC[C@@]3(C)C4CC[C@@H]3/C(C)=N/OC3C=CCCC3)C2)C=C[C@@H]1OC(C)=O (stereo partly drawn) [Sac-1104]			the most excellent	equivalent to that of Sac-1004	concentration-dependent manner	10 µg/mL	increase cell viability	inhibit the formation of actin stress fibers induced by VEGF	the most excellent
CC(=O)OC[C@H]1OC(O[C@H]2CC[C@@]3(C)C(=CCC4C3CC[C@@]3(C)C4CC[C@@H]3/C(C)=N/OC3CCCC3)C2)C=C[C@@H]1OC(C)=O (stereo partly drawn) [Sac-1019]			the most excellent	equivalent to that of Sac-1004	concentration-dependent manner	10 µg/mL	increase cell viability	inhibit the formation of actin stress fibers induced by VEGF	the most excellent
